Laboratory results taken from PMC11904701, “Isolation and Characterization of Secondary Metabolites from Endemic and Edible Polygonum sivasicum with In Vitro Antioxidant and Cytotoxic Activities” (ACS Omega, 2025).
Values after ≈ are worked out from the molar mass of the structure shown.

Columns and labels:
HepG2 cells = test system: HepG2 cells; design: method as in doi:10.14233/ajchem.2013.15043; conditions: cited from earlier work
[1] = test system: A549 (human lung carcinoma epithelial cells); experiment: MTT cell viability assay, A549; conditions: for IC50: Homo sapiens, A549, 24 h, read-out: IC50, 24 h, A549; for selectivity index A549: versus CCD-1079Sk, 24 h
[2] = test system: CCD-1079Sk (human normal skin fibroblast epithelial cells); experiment: MTT cell viability assay, CCD-1079Sk; assay type: cell-based; conditions: 24 h, mean ± SD (n = 3)
Experimental: (§1) The A549 (human lung carcinoma epithelial cells, ATCC, CCL-185), MCF-7 (human breast cancer cells, ATCC, HTB-22), and CCD-1079Sk (human normal skin fibroblast epithelial cells, ATCC, CRL-2097) cell lines were initially seeded into culture flasks and grown in DMEM supplemented with 10% FBS (Sigma-Aldrich, St Louis, MO), 1% penicillin/streptomycin (Thermo Fisher Scientific, Carlsbad, CA). The cell lines were maintained in a humidified atmosphere of 5% CO2 at a temperature of 37 °C. The culture medium was changed every two days until the cells reached 80% confluence.
(§2) 3-(4,5-dimethyl-2-thiazolyl)-2,5-diphenyl-2H-tetrazolium bromide (MTT) was used to assess the cytotoxicity of hyperoside, annphenone, daucosterol, and P. sivasicum methanol extract. Cells were grown in 96-well plates at a density of 5 × 10^3 cells per well. In total, 70 to 80% of confluent cells (after 24 h) were treated with different concentrations of compounds (prepared in a medium containing 1% DMSO) in the growth medium for 24 h. At the end of the incubation periods, MTT solution was added to the wells to give a final concentration of 0.5 mg/mL. The cells were then incubated at 37 °C for a further 3.5 h. To solubilize the formazan crystals, 100 μL of DMSO was added to each well. The optical density was read at 570 nm by using an ELISA microplate reader and directly correlated with the number of viable cells. For each concentration, the data for which the measurement was repeated at least three times were compared. The relative % cell viability and the IC50 value were determined by plotting the graph as a function of concentration. Untreated cells were considered as control, and medium without cells was considered as background control. To determine the cytotoxic effect of compounds on cell viability, cells that were not treated with compounds were considered 100% viable, and cell viability was calculated according to the following formula: % Cell Viability = Sample/Control × 100.
(§3) All data on bioactivity tests were averages of triplicate analyses. Activity assays were carried out at six concentrations, and the results are given as the IC50 values. The data were analyzed using One-way ANOVA followed by Tukey’s post hoc test. p < 0.05, p < 0.001 and p < 0.0001 were considered statistically significant. Data were recorded as mean ± SEM (standard error of the mean). Significant differences between means were determined by the one-way ANOVA, and p values < 0.05 were regarded as significant. IBM SPSS statistical software (Version: 28.0.0.0 (190)) and GraphPad Prism 10.2 were used for statistical analysis.

[3] = design: method as in PMID 28856938; conditions: annphenone isolated from a Euphorbia species; cited from earlier work
A549 cell line = test system: A549 cell line; design: method as in PMID 28856938; conditions: data not included in the cited paper; cited from earlier work
V79–4 cells = test system: V79–4 cells; design: method as in PMID 18550394; conditions: cited from earlier work
Hep-3B cell line = test system: Hep-3B cell line; design: method as in PMID 28856938; conditions: data not included in the cited paper; cited from earlier work
[4] = test system: MCF-7 (human breast cancer cells); experiment: MTT cell viability assay, MCF-7; assay type: cell-based; conditions: 24 h; for IC50: Homo sapiens, MCF7, MTT, mean ± SD (n = 3); for selectivity index MCF-7: versus CCD-1079Sk
Experimental: as §1, §2, §3

U87 cell line = test system: U87 cell line; design: method as in PMID 28856938; conditions: data not included in the cited paper; cited from earlier work
MCF-7 cell line = test system: MCF-7 cell line; design: method as in PMID 28856938; conditions: data not included in the cited paper; cited from earlier work
U118 cell line = test system: U118 cell line; design: method as in PMID 28856938; conditions: data not included in the cited paper; cited from earlier work
[5] = ABTS cation radical assay; assay type: biochemical; conditions: mean ± SEM of three parallel measurements
Experimental: as §3, with “Significant differences between means were determined by the one-way ANOVA, and p values < 0.05 were regarded as significant.” left out

[6] = CUPRAC (Cupric Reducing Antioxidant Capacity) method; assay type: biochemical; conditions: A0.5 values, mean ± SEM of three parallel measurements
Experimental: as §3, with “Significant differences between means were determined by the one-way ANOVA, and p values < 0.05 were regarded as significant.” left out

[7] = DPPH free radical scavenging assay; assay type: biochemical; conditions: mean ± SEM of three parallel measurements
Experimental: as §3, with “Significant differences between means were determined by the one-way ANOVA, and p values < 0.05 were regarded as significant.” left out

[8] = β-carotene linoleic acid bleaching assay; assay type: biochemical; conditions: mean ± SEM of three parallel measurements
Experimental: as §3, with “Significant differences between means were determined by the one-way ANOVA, and p values < 0.05 were regarded as significant.” left out

MCF-7 = test system: MCF-7; design: method as in PMID 30160115; conditions: after 24 h; cited from earlier work
MDA-MB-231 = test system: MDA-MB-231; design: method as in PMID 30160115; conditions: after 24 h; cited from earlier work
breast cancer tumor = test system: breast cancer tumor; design: method as in PMID 30160115; conditions: mice, dose-dependent; cited from earlier work

| IC50 [1] [µg/mL] | IC50 [4] [µg/mL] | ABTS IC50 [5] [µg/mL] | CUPRAC IC50 (A0.5: concentration of 0.500 Absorbance value) [6] [µg/mL] | Compound | selectivity index A549 [1] | IC50 [2] [µg/mL] | selectivity index MCF-7 [4] | other results |
| --- | --- | --- | --- | --- | --- | --- | --- | --- |
|  |  |  |  | O=c1[nH]cc(F)c(=O)[nH]1 [5-fluorouracil, reference compound] |  |  |  | antiproliferative IC50 on HepG2 cells (HepG2 cells): 0.33 µg/mL |
| 250 ± 10 (≈ 726 µM) | 360 ± 20 (≈ 1050 µM) |  |  | COc1cc(O[C@@H]2O[C@H](CO)[C@@H](O)[C@H](O)[C@H]2O)cc(O)c1C(C)=O [Annphenone, 2,4-dihydroxy-6-methoxy-acetophenone 4-O-β-D-glucopyranoside] | 1.20 | 300 ± 50 (≈ 871 µM) | 0.83 | DPPH scavenging IC50 [3]: 23.23 ± 1.8 µg/mL; antiproliferative IC50 on HepG2 cells (HepG2 cells): 2.0 µg/mL; cytotoxicity against A549 (A549 cell line): no cytotoxicity; cytoprotective effect against H2O2-induced apoptosis (V79–4 cells): confirmed; cytotoxicity against Hep-3B (Hep-3B cell line): no cytotoxicity; cytotoxicity against U87 (U87 cell line): no cytotoxicity; cytotoxicity against MCF-7 (MCF-7 cell line): no cytotoxicity; cytotoxicity against U118 (U118 cell line): no cytotoxicity |
|  |  | 21.67 ± 0.87 | 26.85 ± 1.50 | Cc1cc(C(C)(C)C)c(O)c(C(C)(C)C)c1 [BHT, Butylated hydroxy toluene] |  |  |  |  |
| 180 ± 20 (≈ 312 µM) | 580 ± 20 (≈ 1010 µM) |  |  | CC[C@H](CC[C@@H](C)[C@H]1CC[C@H]2[C@@H]3CC=C4C[C@@H](O[C@@H]5O[C@H](CO)[C@@H](O)[C@H](O)[C@H]5O)CC[C@]4(C)[C@H]3CC[C@]12C)C(C)C [Daucosterol, β-sitosterol-3-O-β-glucopyranoside] | 1.44 | 260 ± 30 (≈ 451 µM) | 0.44 | IC50 (MCF-7): 30.8 mM; IC50 (MDA-MB-231): 49.8 mM; tumor volume (breast cancer tumor): decrease; tumor weight (breast cancer tumor): decrease |
| 10 ± 10 (≈ 18.4 µM) | 40 ± 10 (≈ 73.6 µM) |  |  | COc1cccc2c1C(=O)c1c(O)c3c(c(O)c1C2=O)C[C@@](O)(C(=O)CO)C[C@@H]3O[C@H]1C[C@H](N)[C@H](O)[C@H](C)O1 [Doxorubicin, reference compound] | 28.0 | 280 ± 10 (≈ 515 µM) | 7.0 |  |
| 600 ± 70 (≈ 1290 µM) | 370 ± 20 (≈ 797 µM) |  |  | O=c1c(O[C@@H]2O[C@H](CO)[C@H](O)[C@H](O)[C@H]2O)c(-c2ccc(O)c(O)c2)oc2cc(O)cc(O)c12 [Hyperoside, Quercetin-3-O-β-galactopyranoside] | 0.41 | 250 ± 40 (≈ 538 µM) | 0.67 |  |
|  |  | 27.70 ± 0.28 | 134.53 ± 0.19 | Cc1c(C)c2c(c(C)c1O)CC[C@@](C)(CCC[C@H](C)CCC[C@H](C)CCCC(C)C)O2 [α-Toc, Tocopherol] |  |  |  | DPPH IC50 [7]: 36.35 ± 0.24 µg/mL |

| Compound | IC50 [1] [µg/mL] | IC50 [4] [µg/mL] | ABTS IC50 [5] [µg/mL] | CUPRAC IC50 (A0.5: concentration of 0.500 Absorbance value) [6] [µg/mL] | selectivity index A549 [1] | IC50 [2] [µg/mL] | selectivity index MCF-7 [4] | other results |
| --- | --- | --- | --- | --- | --- | --- | --- | --- |
| COc1ccc(O)c(C(C)(C)C)c1 [BHA, Butylated hydroxy anisol] |  |  | 7.23 ± 0.01 | 24.49 ± 0.19 |  |  |  | DPPH IC50 [7]: 28.59 ± 0.06 µg/mL; β-carotene IC50 [8]: 1.34 ± 0.04 µg/mL |
